Reference: the RepoRT retention time repository (doi:10.1007/s11306-011-0298-z)

Assay: RP, Waters ACQUITY UPLC HSS T3, 100 × 2.1 mm, 1.8 µm, 30 °C, 0.3 mL/min, estimated dead time 0.73 min; A: water + 0.1% formic acid, pH 3; B: methanol + 0.1% formic acid, pH 3; gradient (min/%B) 0/0 6/0 56/100 60/100
Conditions: stereoisomer not certain

Row | Compound | LC retention time [min]
1 | O=C(O)CCCCC(=O)O [adipic acid] | 15.5
2 | OCC(O)C(O)C(O)CO (stereo not given) [adonitol] | 1.38
3 | OCC1OC(O)C(O)C(O)C1O (stereo not given) [allose] | 1.35
4 | Cc1c(C)c2c(c(C)c1O)CCC(C)(CCCC(C)CCCC(C)CCCC(C)C)O2 (stereo not drawn) [alpha-tocopherol] | 59.2
5 | O=CC(O)C(O)C(O)C(O)CO (stereo not given) [altrose] | 1.43
6 | Oc1ccc(C=C2c3cc(O)cc(O)c3C(c3ccc(O)cc3)C2c2cc(O)cc(O)c2)cc1 (stereo not given) [ampelopsin D + quadrangularin A] | 26.2
7 | Oc1ccc(C2Oc3cc(O)c4c(c3C2c2cc(O)cc(O)c2)C2C(c3ccc(O)cc3)c3c(O)cc5c(c3C2C4c2ccc(O)cc2)C(c2cc(O)cc(O)c2)C(c2ccc(O)cc2)O5)cc1 (stereo not given) [ampelopsin H] | 29.8
8 | N#CC(OC1OC(COC2OC(CO)C(O)C(O)C2O)C(O)C(O)C1O)c1ccccc1 (stereo not given) [amygdalin] | 19.3
9 | COc1ccc(C=O)cc1 [anisaldehyde] | 27.1
10 | Nc1ccccc1C(=O)O [anthranilic acid] | 19.1
11 | O=c1cc(-c2ccc(O)cc2)oc2cc(OC3OC(CO)C(O)C(O)C3O)cc(O)c12 (stereo not given) [apigenin-7-O-glucoside] | 28.9
12 | O=c1cc(-c2ccc(O)cc2)oc2cc(OC3OC(CO)C(O)C(O)C3OC3OCC(O)(CO)C3O)cc(O)c12 (stereo not given) [apiin] | 29.6
13 | O=CC(O)C(O)C(O)CO (stereo not given) [arabinose] | 1.41
14 | CCCCCC=CCC=CCC=CCC=CCCCC(=O)O [arachidonic acid] | 53.5
15 | OCC1OC(Oc2ccc(O)cc2)C(O)C(O)C1O (stereo not given) [arbutin] | 7.61
16 | CC1=C(C=CC(C)O)C(C)(C)CCC1 (stereo not given) [b-ionol] | 46.3
17 | CCCCCCCCCCCCCCCCCCCCCC(=O)O [behenic acid] | 58.7
18 | C[N+](C)(C)CC(=O)[O-] [betaine] | 1.38
19 | C=C(C)C1CCC2(C(=O)O)CCC3(C)C(CCC4C5(C)CCC(O)C(C)(C)C5CCC43C)C12 (stereo not given) [betulinic acid] | 53.2

Row | Compound | LC retention time [min]
20 | C=CC1=C(C)C(=Cc2[nH]c(Cc3[nH]c(C=C4NC(=O)C(C)=C4C=C)c(C)c3CCC(=O)O)c(CCC(=O)O)c2C)NC1=O [bilirubin] | 56.4
21 | O=C(O)CCCCC1SCC2NC(=O)NC21 (stereo not given) [biotin] | 21.6
22 | NCCCCCN [cadaverine] | 1.1
23 | O=C1CC(c2ccc(O)c(O)c2)c2c(cc(O)c3c2OC(c2ccc(O)c(O)c2)C(O)C3)O1 (stereo not given) [caffeic acid+catechin condensation product] | 26.1
24 | Cn1c(=O)c2c(ncn2C)n(C)c1=O [caffeine] | 20.4
25 | CC12CCC(CC1=O)C2(C)C (stereo not given) [camphor] | 36.5
26 | OCC1OC(OC2C(CO)OC(O)C(O)C2O)C(O)C(O)C1O (stereo not given) [cellobiose] | 1.55
27 | CC(CCC(=O)O)C1CCC2C3C(O)CC4CC(O)CCC4(C)C3CCC12C (stereo not given) [chenodeoxycholic acid] | 49.4
28 | C=CC1CN2CCC1CC2C(O)c1ccnc2ccccc12 (stereo not given) [chinchonidine sulphate] | 19.1
29 | CC(C)CCCC(C)C1CCC2C3CC=C4CC(O)CCC4(C)C3CCC12C (stereo not given) [cholesterol] | 60.2
30 | CC(CCC(=O)O)C1CCC2C3C(O)CC4CC(O)CCC4(C)C3CC(O)C12C (stereo not given) [cholic acid] | 46.8
31 | C[N+](C)(C)CCO [choline] | 1.4
32 | CCCCCCCC/C=C\CCCCCCCCCC(=O)O [cis-11-eicosenoic acid] | 56.2
33 | O=C(O)C=C(CC(=O)O)C(=O)O [cis-acotinic acid] | 4.4
34 | CC(O)(CC(=O)O)C(=O)O (stereo not given) [citramalic acid] | 5.18
35 | O=C(O)CC(O)(CC(=O)O)C(=O)O [citric acid] | 3.91
36 | OCC1OC(Oc2cc3c(OC4OC(CO)C(O)C(O)C4O)cc(O)cc3[o+]c2-c2ccc(O)c(O)c2)C(O)C(O)C1O (stereo not given) [cyanidin-3,5-diglucoside] | 18.4
37 | CC1OC(OCC2OC(Oc3cc4c(O)cc(O)cc4[o+]c3-c3ccc(O)c(O)c3)C(O)C(O)C2O)C(O)C(O)C1O (stereo not given) [cyanidin-3-rutinoside] | 23.1
38 | Oc1cc(O)c2cc(O)c(-c3ccc(O)c(O)c3)[o+]c2c1 [cyanidin] | 28.9

Row | Compound | LC retention time [min]
39 | CCCCCCCCCC(=O)O [decanoic acid] | 45.6
40 | O=C1OC(C(O)CO)C(=O)C1=O (stereo not given) [dehydroascorbic acid] | 1.72
41 | CC1OC(OCC2OC(Oc3cc4c(O)cc(O)cc4[o+]c3-c3cc(O)c(O)c(O)c3)C(O)C(O)C2O)C(O)C(O)C1O (stereo not given) [delphinidin 3 rutinoside] | 21.9
42 | OCC1OC(Oc2cc3c(O)cc(O)cc3[o+]c2-c2cc(O)c(O)c(O)c2)C(O)C(O)C1O (stereo not given) [delphinidin-3-glucoside] | 20.9
43 | O=c1cc2oc(-c3cc(O)c(O)c(O)c3)c(O)cc-2c(O)c1 [delphinidin] | 27.1
44 | CC(CCC(=O)O)C1CCC2C3CCC4CC(O)CCC4(C)C3CC(O)C12C (stereo not given) [deoxycholic acid] | 49.6
45 | CCNCC [diethylamine] | 1.68
46 | CC(=O)C=CC1C(C)CCCC1(C)C (stereo not drawn) [dihidro alpha ionone] | 46.1
47 | O=c1oc2c(O)c(O)cc3c(=O)oc4c(O)c(O)cc1c4c23 [ellagic acid] | 30.2
48 | Cc1cc(O)c2c(c1)C(=O)c1cc(O)cc(O)c1C2=O [emodin] | 46.4
49 | O=C(OC1Cc2c(O)cc(O)cc2OC1c1cc(O)c(O)c(O)c1)c1cc(O)c(O)c(O)c1 (stereo not given) [epigallo-catechin gallate] | 22.3
50 | Oc1cc(O)c2c(c1)OC(c1cc(O)c(O)c(O)c1)C(O)C2 (stereo not given) [epigallocatechin] | 16.5
51 | CC(C)C(C)C=CC(C)C1CCC2C3=CC=C4CC(O)CCC4(C)C3CCC21C (stereo not given) [ergosterol] | 58.9
52 | CC1(C)CCC2(CO)CCC3(C)C(=CCC4C5(C)CCC(O)C(C)(C)C5CCC43C)C2C1 (stereo not given) [erythrodiol] | 53.8
53 | O=c1ccc2cc(OC3OC(CO)C(O)C(O)C3O)c(O)cc2o1 (stereo not given) [esculin] | 17.8
54 | CCCCCC=CCC=CCCCCCCCC(=O)OCC [ethyl linoleate] | 56.1
55 | CCCCCCCCCCCCCC(=O)OCC [ethyl tetradecanoate] | 55.1
56 | Nc1nc2ncc(CNc3ccc(C(=O)NC(CCC(=O)O)C(=O)O)cc3)nc2c(=O)[nH]1 (stereo not given) [folic acid] | 21.3

Results, then the molecule that gave them:

Row | LC retention time [min] | Compound
57 | 37.1 | O=c1cc(-c2ccc(O)cc2)oc2cc(O)cc(O)c12 [apigenin]
58 | 22.7 | OCC1OC(Oc2cc(O)cc(C=Cc3ccc(O)c(O)c3)c2)C(O)C(O)C1O (stereo not given) [astringin]
59 | 36.6 | O=c1cc(-c2ccccc2)oc2cc(O)c(O)c(O)c12 [baicalein]
60 | 26.2 | O=C(O)c1ccccc1 [benzoic acid]
61 | 43.5 | O=C(OCc1ccccc1)c1ccccc1 [benzyl benzoate]
62 | 19.6 | O=C(O)c1ccc(O)cc1O [beta-resorcylic acid]
63 | 15.5 | O=C(C=Cc1ccc(O)c(O)c1)OC(C(=O)O)C(O)C(=O)O (stereo not given) [caftaric acid]
64 | 18 | O=C(C=Cc1ccc(O)c(O)c1)OC1CC(O)(C(=O)O)CC(O)C1O (stereo not given) [chlorogenic acid]
65 | 40.9 | O=c1cc(-c2ccccc2)oc2cc(O)cc(O)c12 [chrysin]
66 | 31.8 | O=C(O)C=Cc1ccccc1 [cinnamic acid]
67 | 27.2 | OCC1OC(Oc2cc(O)cc(C=Cc3ccc(O)cc3)c2)C(O)C(O)C1O (stereo not drawn) [cis-piceid]
68 | 30.4 | Oc1ccc(/C=C\c2cc(O)cc(O)c2)cc1 [cis-resveratrol]
69 | 22.8 | COc1cc(C=CCO)ccc1O [coniferyl alcohol]
70 | 25.9 | COc1cc(C=CC=O)ccc1O [coniferyl aldehyde]
71 | 20.1 | O=C(C=Cc1ccc(O)c(O)c1)OC1C(O)CC(O)(C(=O)O)CC1O (stereo not given) [cryptochlorogenic acid]
72 | 38.6 | CC(C)c1ccc(C=O)cc1 [cuminaldehyde]
73 | 22.1 | OCC1OC(Oc2cc3c(O)cc(O)cc3[o+]c2-c2ccc(O)c(O)c2)C(O)C(O)C1O (stereo not given) [cyanidin 3 galactoside]
74 | 23.1 | Oc1cc(O)c2cc(OC3OCC(O)C(O)C3O)c(-c3ccc(O)c(O)c3)[o+]c2c1 (stereo not given) [cyanidin-3-arabinoside]
75 | 32.5 | O=c1c(-c2ccc(O)cc2)coc2cc(O)ccc12 [daidzein]
76 | 27.8 | O=C1c2c(O)cc(O)cc2OC(c2ccc(O)cc2)C1O (stereo not given) [dihydrokaempferol]
77 | 24.4 | Oc1ccc(C2Oc3cc(O)cc(O)c3CC2O)cc1 (stereo not given) [epiafzelechin]
78 | 20.5 | Oc1cc(O)c2c(c1)OC(c1ccc(O)c(O)c1)C(O)C2 (stereo not given) [epicatechin]
79 | 31 | O=C1CC(c2ccc(O)c(O)c2)Oc2cc(O)cc(O)c21 (stereo not given) [eriodictyol]
80 | 23 | CCOC(=O)c1cc(O)c(O)c(O)c1 [ethyl gallate]
81 | 35.5 | CCOC(=O)Cc1c[nH]c2ccccc12 [ethyl indole-3-acetate]
82 | 38.3 | C=CCc1ccc(OC(C)=O)c(OC)c1 [eugenyl acetate]
83 | 37.4 | COc1ccc(-c2cc(=O)c3c(OC)c(OC)c(OC)cc3o2)cc1O [eupatorin-5-methylether]
84 | 19.5 | COc1cc(C=CC(=O)OC(C(=O)O)C(O)C(=O)O)ccc1O (stereo not given) [fertaric acid]
85 | 25.9 | COc1cc(/C=C/C(=O)O)ccc1O [ferulic acid]
